Legend:
NCI-60 cancer cell lines = test: NCI-60 cytotoxicity assay, MGM; type: cell-based; conditions: Homo sapiens; entire panel of NCI-60 cancer cell lines; read-out: MGM (approximate average of GI50 values across the NCI-60 panel)
Description: (§1) The antiproliferative activities of the indenoisquinoline compounds are determined in the NCI-60 cancer cell lines of the National Cancer Institute Developmental Therapeutics Program (NCI-DTP). […] Cancer cells are incubated with the test compounds at five concentrations ranging from 100 μM to 10 nM for 48 h. After the treated cancer cells are stained with sulforhodamine B dye, the percentage growth is plotted as a function of the common logarithm of the tested compound concentration. […] The approximate average of GI50 values across the entire panel of NCI-60 cancer cell lines for each compound is recorded as the MGM value.
(§2) NCI-60 Cytotoxicity Assay. Compounds were submitted to the National Cancer Institute Developmental Therapeutic Program to determine their growth-inhibitory potentials in NCI-60 cell lines. All compounds satisfied the pre-screening proceeded into the 5-dose cell viability assay, in which cells were treated for 48 h at 5 dosages ranging from 100 μM to 10 nM.

SF-539 (CNS) = test: NCI-60 cytotoxicity assay; type: cell-based; conditions: Homo sapiens; SF-539 CNS; 48 h, sulforhodamine B; read-out: Comparative Cytotoxicity GI50, CNS SF-539
Description: as §1, §2

DU-145 (Prostate) = test: NCI-60 cytotoxicity assay; type: cell-based, human; conditions: Homo sapiens; DU-145 prostate; 48 h, sulforhodamine B; read-out: Comparative Cytotoxicity GI50, Prostate DU-145
Description: as §1, §2

OVCAR-3 (Ovarian) = test: NCI-60 cytotoxicity assay; type: cell-based, human; conditions: Homo sapiens; OVCAR-3 ovarian; 48 h, sulforhodamine B; read-out: Comparative Cytotoxicity GI50, Ovarian OVCAR-3
Description: as §1, §2

HCT-116 (Colon) = test: NCI-60 cytotoxicity assay; type: cell-based, human; conditions: Homo sapiens; HCT-116 colon; 48 h, sulforhodamine B; read-out: Comparative Cytotoxicity GI50, Colon HCT-116
Description: as §1, §2

UACC-62 (Melanoma) = test: NCI-60 cytotoxicity assay; type: cell-based, human; conditions: Homo sapiens; UACC-62 melanoma; 48 h, sulforhodamine B; read-out: Comparative Cytotoxicity GI50, Melanoma UACC-62
Description: as §1, §2

HOP-62 (Lung) = test: NCI-60 cytotoxicity assay; type: cell-based, human; conditions: Homo sapiens; HOP-62 lung; 48 h, sulforhodamine B; read-out: Comparative Cytotoxicity GI50, Lung HOP-62
Description: as §1, §2

SN12C (Renal) = test: NCI-60 cytotoxicity assay; type: cell-based, human; conditions: Homo sapiens; SN12C renal; 48 h, sulforhodamine B; read-out: Comparative Cytotoxicity GI50, Renal SN12C
Description: as §1, §2

MCF7 (Breast) = test: NCI-60 cytotoxicity assay; type: cell-based, human; conditions: Homo sapiens; MCF7 breast; 48 h, sulforhodamine B; read-out: Comparative Cytotoxicity GI50, Breast MCE7
Description: as §1, §2

Caco-2 cells = test: Caco-2 permeability; type: in vitro ADME

Efflux Ratio (Caco-2 cells; Caco-2)	Recovery (%)AP-BL (Caco-2 cells; Caco-2) [%]	Recovery (%)BL-AP (Caco-2 cells; Caco-2) [%]	Papp (A→B) (Caco-2 cells; Caco-2, 5 μM, 2 h)	Papp (B→A) (Caco-2 cells; Caco-2, 5 μM, 2 h)	Compound	GI50 (NCI-60 cancer cell lines) [nM]	GI50 (SF-539 (CNS)) [nM]	GI50 (DU-145 (Prostate)) [nM]	GI50 (OVCAR-3 (Ovarian)) [nM]	GI50 (HCT-116 (Colon)) [nM]	GI50 (UACC-62 (Melanoma)) [nM]	GI50 (HOP-62 (Lung)) [nM]	GI50 (SN12C (Renal)) [nM]	GI50 (MCF7 (Breast)) [nM]
–	–	–	–	–	COc1cc2c3c(n(CCCNC4CCCC4)c(=O)c2cc1OC)-c1cc2c(cc1C3=O)OCO2 [A3]	2690	1510	1440	1640	1200	13000	2380	1800	670
–	–	–	–	–	COc1cc2c3c(n(CCCNC4CCCCC4)c(=O)c2cc1OC)-c1cc2c(cc1C3=O)OCO2 [A7]	6020	7740	1840	11000	1320	28400	15900	18600	1060
–	–	–	–	–	COc1cc2c3c(n(CCCN4CCC[C@H]4C(N)=O)c(=O)c2cc1OC)-c1cc2c(cc1C3=O)OCO2 [A5]	125	30	38	160	35	21	31	42	10
25.25	88.64	106.70	0.74 10^−6, cm/s	18.71 10^−6, cm/s	C[C@H]1O[C@@H](O[C@H]2[C@@H](O)C[C@H](O[C@H]3[C@@H](O)C[C@H](O[C@H]4CC[C@@]5(C)[C@H](CC[C@@H]6[C@@H]5C[C@@H](O)[C@]5(C)[C@@H](C7=CC(=O)OC7)CC[C@]65O)C4)O[C@@H]3C)O[C@@H]2C)C[C@H](O)[C@@H]1O [Digoxin]	–	–	–	–	–	–	–	–	–
–	–	–	–	–	COc1cc2c3c(n(CCCN4CCCC4)c(=O)c2cc1OC)-c1cc2c(cc1C3=O)OCO2 [A4]	1100	1330	1310	1500	1140	1480	800	1640	380

Reference: patent US20240287089A1, “Preparation and Uses of 7-Azaindenoisoquinolines” (Purdue Research Foundation, priority 0001, published 2024)
